What all share (test): Bliss excess, mean over the matrix (fraction); higher = more synergy
Assay [1] has as its system 697 (B-Lymphoblastic Leukemia). Put shortly:
(§1)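 After 24 hours at 37°C and 5% CO2 in 1536-well plates, cells in DMEM/F12 or RPMI plus 10% FBS received two-drug dose matrices for 72 hours. Viability came from CellTiter-Glo 2.0 luminescence and was scaled as inhibition, anchored at 0 by vehicle wells and at 1 by blank wells. Combination Emax is taken as the second-highest inhibition in the matrix, and Bliss excess as the observed combination effect less EA + EB − EA·EB, with EA and EB the single-agent effects.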

Assay [2] concerns CFPAC-1 (Pancreatic Carcinoma). An outline of the steps: as §1
Assay [3] concerns COR-L95 (Small Cell Lung Carcinoma). An outline of the steps:
as §1

The test system of assay [4] is DB (B-Cell Non-Hodgkin's Lymphoma). An outline of the steps:
as §1

The next assay deals with DSH1 (Bladder Carcinoma). Put shortly:
as §1

The test system of the next assay is ES7 (Ewing's Sarcoma). Put shortly:
as §1

Assay [5] has as its system IHH-4 (Thyroid Gland Carcinoma). Put shortly:
as §1

The test system of another assay is J82 (Bladder Carcinoma). An outline of the steps: as §1
Assay [6] concerns KARPAS-1106P (B-Cell Non-Hodgkin's Lymphoma). An outline of the steps:
as §1

Assay [7] relates to KARPAS-620 (Plasma Cell Myeloma). Put shortly:
as §1

For assay [8], the system named is KATOIII (Gastric Carcinoma). Put shortly: as §1
Assay [9] has as its system KM-H2 (Hodgkin's Lymphoma). Put shortly: as §1
In assay [10] the test system is LS-513 (Colorectal Carcinoma). An outline of the steps:
as §1

For assay [11], the system named is MDA-MB-157 (Breast Carcinoma). An outline of the steps: as §1
For assay [12], the system named is NCI-H1299 (Non-Small Cell Lung Carcinoma). Put shortly:
as §1

The subject of assay [13] is NCI-H1694 (Small Cell Lung Carcinoma). An outline of the steps:
as §1

Assay [14] concerns OCI-AML2 (Acute Myeloid Leukemia). Put shortly: as §1
Another assay has as its system SN12C (Kidney Carcinoma). An outline of the steps:
as §1

The test system of assay [15] is SUIT-2 (Pancreatic Carcinoma). An outline of the steps:
as §1

Assay [16] concerns SW1088 (Low Grade Glioma). Put shortly:
as §1

In the case of `C[C@@H](c1ccc2nccn2c1)n1nnc2ncc(-c3cnn(C)c3)nc21` [Savolitinib] + CC1(C)CCC(CN2CCN(c3ccc(C(=O)NS(=O)(=O)c4ccc(NCC5CCOCC5)c([N+](=O)[O-])c4)c(Oc4cnc5[nH]ccc5c4)c3)CC2)=C(c2ccc(Cl)cc2)C1 [Venetoclax] (first compound max 1 µM, 7x7, partner max 1 µM), the Bliss excess in assay [1] was -0.114; in assay [2], -0.0514; in [3], 0.0069; in assay [4], 0.0216; in the assay on DSH1 (Bladder Carcinoma) it was 0; with ES7 (Ewing's Sarcoma) it was -0.0354. The Bliss excess in assay [5] was -0.0399; with J82 (Bladder Carcinoma), -0.0895; in [6], -0.0157; in assay [7], -0.0449; in assay [8], -0.0364; in assay [9], 0. Moreover, the Bliss excess was -0.0599 in assay [10]; -0.0411 in [11]; -0.0418 in assay [12]; -0.0286 in assay [13]; -0.0246 in assay [14]; -0.0152 in the assay with SN12C (Kidney Carcinoma). Also, the values for the Bliss excess in assay [15] and in assay [16] were -0.0737 and -0.0115, respectively.

As for `COc1cc2c(cc1OCCCCCOc1cc3c(cc1OC)C(=O)N1C=C(C)C[C@H]1C=N3)N=C[C@@H]1CC(C)=CN1C2=O` [SG3199] + O=C(c1cc(Cc2n[nH]c(=O)c3ccccc23)ccc1F)N1CCN(C(=O)C2CC2)CC1 [Olaparib] (first compound max 0.001 µM, 7x7, partner max 10 µM), the Bliss excess in assay [1] was 0.0376; in assay [2], -0.0329; in assay [3] it was -0.0224; in assay [4], -0.0272; in the assay with DSH1 (Bladder Carcinoma) it was -0.0442; with ES7 (Ewing's Sarcoma), 0.0011. Moreover, the Bliss excess in assay [5] is -0.0115; in the assay with J82 (Bladder Carcinoma), 0.0123; in [6], -0.0202; in assay [7], -0.0015; in [8] it was -0.0365; in assay [9] it was 0.0232. Moreover, the Bliss excess was -0.0372 in assay [10]; -0.0185 in assay [11]; -0.0381 in assay [12]; -0.0222 in assay [13]; -0.0546 in assay [14]; -0.0697 in the assay on SN12C (Kidney Carcinoma). For the same compound, the Bliss excess in assay [15] is -0.0029; in assay [16] it was -0.0511.

With `Cc1c2c(nn1C)CSCc1cc(n(C)n1)CSc1cc(c3ccccc3c1)OCCCc1c(C(=O)O)n(C)c3c-2c(Cl)ccc13` [AZD5991] + C=CCn1c(=O)c2cnc(Nc3ccc(N4CCN(C)CC4)cc3)nc2n1-c1cccc(C(C)(C)O)n1 [AZD1775] (first compound max 1 µM, partner max 1 µM), the Bliss excess in assay [1] is -0.0264; in assay [2] it was 0.0535; in [3], -0.0637; in [4] it was -0.0165; in the assay on DSH1 (Bladder Carcinoma), -0.0115; with ES7 (Ewing's Sarcoma) it was 0.0155. Moreover, the Bliss excess is 0.02 in assay [5]; -0.0372 in the assay on J82 (Bladder Carcinoma); -0.011 in assay [6]; -0.0032 in assay [7]; -0.029 in assay [8]; -0.0181 in [9]. For the same compound, the Bliss excess in assay [10] was -0.0115; in [11], 0.001; in assay [12] it was -0.0048; in assay [13], -0.0247; in assay [14] it was -0.0366; in the assay with SN12C (Kidney Carcinoma), 0.0306. Also, the Bliss excess in assay [15] was 0.0014; in assay [16], -0.0307.

With `CN(CCO)CC[C@H](CSc1ccccc1)Nc1ccc(S(=O)(=O)NC(=O)c2ccc(N3CCC([C@@H](O)c4ccccc4-c4ccc(Cl)cc4)CC3)cc2)cc1S(=O)(=O)C(F)(F)F` [AZD4320] + C[C@@H]1COCCN1C2=NC(=NC(=C2)C3(CC3)[S@](=N)(=O)C)C4=C5C=CNC5=NC=C4 [AZD6738] (first compound max 1 µM, 7x7, partner max 10 µM), the Bliss excess was 0.013 in [1]; -0.0077 in assay [2]; -0.0234 in assay [3]; 0.0249 in assay [4]; 0.0405 with DSH1 (Bladder Carcinoma); 0.0638 in the assay on ES7 (Ewing's Sarcoma). In addition, the Bliss excess in [5] was -0.0231; in the assay on J82 (Bladder Carcinoma), -0.0144; in assay [6], -0.0301; in assay [7] it was -0.0028; in [8], -0.0397; in assay [9], 0.0381. Moreover, the Bliss excess in assay [10] was -0.0354; in assay [11], -0.0254; in assay [12], -0.016; in assay [13] it was 0.0238; in assay [14], 0.0397; in the assay on SN12C (Kidney Carcinoma), -0.0499. Moreover, the Bliss excess in assay [15] was -0.098; in assay [16], -0.0732.

As for `CC1(C)CCC(CN2CCN(c3ccc(C(=O)NS(=O)(=O)c4ccc(NCC5CCOCC5)c([N+](=O)[O-])c4)c(Oc4cnc5[nH]ccc5c4)c3)CC2)=C(c2ccc(Cl)cc2)C1` [Venetoclax] + C1CN(CCC1(C(=O)N[C@@H](CCO)C2=CC=C(C=C2)Cl)N)C3=NC=NC4=C3C=CN4 [Capivasertib] (first compound max 1 µM, 7x7, partner max 3 µM), the Bliss excess is -0.0154 in [1]; -0.0274 in assay [2]; 0.0145 in [3]; 0.0332 in assay [4]; -0.0642 with DSH1 (Bladder Carcinoma); -0.0178 in the assay on ES7 (Ewing's Sarcoma). The Bliss excess is -0.0187 in assay [5]; -0.0827 in the assay with J82 (Bladder Carcinoma); -0.0409 in assay [6]; 0.0971 in assay [7]; -0.0691 in [8]; -0.0178 in [9]. Moreover, the Bliss excess in assay [10] was -0.0649; in assay [11] it was -0.0187; in assay [12], -0.0036; in [13] it was -0.0418; in [14] it was 0.0444; with SN12C (Kidney Carcinoma) it was -0.0557. The Bliss excess was -0.0663 in assay [15] and -0.0578 in [16].

Consider `CN(C)CCCOc1ccc(-c2ccc3ncc4c(c3c2)n(C2CCOCC2)c(=O)n4C)cn1` [AZD0156] + C[C@@H]1COCCN1C2=NC(=NC(=C2)C3(CC3)[S@](=N)(=O)C)C4=C5C=CNC5=NC=C4 [AZD6738] (first compound max 1 µM, 7x7, partner max 10 µM), for which the Bliss excess in assay [1] was 0.0085; in [2], -0.0137; in assay [3], -0.0363; in assay [4], -0.0151; in the assay with DSH1 (Bladder Carcinoma), 0.0773; in the assay on ES7 (Ewing's Sarcoma), 0.0225. The Bliss excess in assay [5] was 0.0537; in the assay with J82 (Bladder Carcinoma) it was 0; in assay [6] it was 0.0462; in assay [7], 0.0058; in [8], -0.0207; in assay [9], 0.0658. The Bliss excess in assay [10] is 0.0068; in [11], -0.0103; in assay [12], 0.0234; in assay [13] it was 0.0229; in assay [14] it was -0.051; in the assay on SN12C (Kidney Carcinoma), -0.0795. In addition, the Bliss excess is 0.0103 in assay [15] and -0.0113 in assay [16].

`CC(=O)c1c(C)c2cnc(Nc3ccc(N4CCNCC4)cn3)nc2n(C2CCCC2)c1=O` [Palbociclib] + CN(CC[C@H](CSC1=CC=CC=C1)NC2=C(C=C(C=C2)S(=O)(=O)NC(=O)C3=CC=C(C=C3)N4CCC(CC4)[C@H](C5=CC=CC=C5C6=CC=C(C=C6)Cl)O)S(=O)(=O)C(F)(F)F)CCO [AZD4320] (first compound max 10 µM, 7x7, partner max 1 µM): the Bliss excess is -0.0718 in [1]; 0.0056 in [2]; -0.0667 in the assay with J82 (Bladder Carcinoma); -0.0282 in assay [9]; 0.0632 in [13]; -0.0937 in [15].
